In patent US7795310B2, “Methods and reagents for the treatment of metabolic disorders” (CombinatoRx, Inc., priority 2004, dated 2010):
Structures can show the parent of a compound that is named as a salt. Where two headings read alike, the source gives them in different places.

Key:
[1] = tested on: 3T3-L1 adipocytes; assay: Screening assay: insulin-stimulated 14C-glucose uptake by adipocytes (Example 3; F, sF, S/N); type: cell-based, mouse
Protocol: These assays were conducted as follows.
(§1) Complete media, also referred to as “Prees” media, was prepared as follows. Dulbecco's Modified Eagle's Medium (DMEM) was supplemented with L-glutamine, penicillin-G and streptomycin (pen/strep), and heat-inactivated fetal bovine serum (FBS) (heat inactivated at […] for 30 minutes). Because serum can affect the growth, adherence, and differentiation of cells, any new lot of serum was first tested prior to use. Media was equilibrated in the incubator (5% CO2) until the pH was within the proper range (˜7), as indicated by the red/orange color of the indicator dye. If the media became pink (indicating a high pH), we discarded the media as basic conditions can affect cells and denature the insulin used in the differentiation medium-1 (DM1) and the differentiation medium-2 (DM2).
Differentiation media-2 (DM2) was prepared by supplementing DMEM with 10% FBS, L-glutamine, pen/strep, and insulin (120 nM).
(§2) Cell culture plates were gelatinized as follows. Gelatin (1% w/v in distilled water) was autoclaved and stored at room temperature. The bottom of each cell culture well was covered uniformly in the gelatin solution, ensuring that no bubbles were formed. This solution was removed leaving behind a thin film of gelatin. These plates were left to dry under the tissue culture hood. Plates were next washed with PBS, after which a 0.5% glutaric dialdehyde solution (glutaraldehyde in distilled water) was added to the cell culture wells. After ten minutes, wells were washed twice with DMEM containing pen-strep. Each washing step should last for approximately five minutes.
(§3) 3T3-L1 pre-adipocyte cells were split approximately every 2-3 days or upon reaching a confluence of approximately 60%. Overconfluency may affect the ability of these cells to differentiate into adipocytes.
(§4) D-(+)-glucose (“cold” glucose, not radiolabeled) was added to DPBS mix to a final concentration of 10 mM.
(§5) Lysis buffer, a mixture of a base (e.g., sodium hydroxide at a final concentration of 0.5N) and a detergent (e.g., sodium dodecyl sulphate (SDS) diluted to a final concentration of 0.1% w/v) was freshly prepared each time (within one to two hours of use). Prior to use, lysis buffer was warmed up to a temperature exceeding that of room temperature for a period of approximately 30 minutes to avoid precipitation of the buffer.
(§6) Pre-adipocyte 3T3-L1 cells were plated at a density of approximately 5000 cells/well (in black NUNC 96 well plate). These cells were differentiated into adipocytes in two separate steps. Initially, cells were cultured in differentiation medium-1 (DM1) (day 1 of adipocyte differentation) for a period of two to three days. DM1 prevents proliferation and induces the expression of adipocyte-specific genes. Cells were next cultured in differentiation medium-2 (DM2) for 3 to 4 days, after which the culture media was replaced by fresh DM2. The glucose uptake assay was performed at day 9-15 of differentiation.
Two days prior to the experiment (at day 7-13 of differentiation), DM2 was removed and replaced with fresh Prees media. Candidate compounds were added at this time, allowing an incubation period of approximately 48 hours. On the day of the experiment, cells (now at day 9 to 15 of differentiation) were serum starved for three hours in DPBS, magnesium sulfate (0.8 mM), and Hepes (10 mM) at pH ˜7. After this incubation period, fresh DPBS containing insulin (10 nM) was added to the adipocytes. Fresh DPBS without any insulin were placed on cells that served as a negative control. Following an incubation period of 25 minutes at 37° C., radioactive glucose (labeled with ^14C, at a final concentration of 0.04 mM, ˜0.26 μCi ^14C-glucose in each well) was added to the media for a period of 15 minutes at room temperature. Media was next removed and cells were washed thoroughly and lysed. Upon lysis, cells form a small, cloudy mass, detached from the well bottom.

[2] = tested on: human skeletal myoblasts; assay: Glycogen synthesis from radiolabeled glucose in skeletal myoblasts (Example 3; Xlsyz); type: cell-based
Protocol: In another set of experiments, human skeletal myoblasts obtained by the conditional immortalization of cells derived from a non-diabetic subject, were used to screen the effect of a multitude of compounds on glycogen synthesis. For each compound, two doses were tested in triplicate. The vehicle was used as a negative control and insulin was used as a positive control. Prior to treatment, cells were serum-starved for 12 to 18 hours in Ham's F10 medium. Cells were next incubated either with the test compounds or control for a period of two hours in serum-free media containing radiolabeled glucose, after which, glycogen synthesis was measured.

[3] = tested on: 3T3-L1 adipocytes; assay: Insulin-stimulated 14C-glucose uptake in differentiated adipocytes (Example 1); type: cell-based, mouse
Protocol: Differentiated mouse adipocytes were employed to identify combinations of agents that have the ability to increase glucose uptake upon insulin stimulation, as detected by scintillation counting of radiolabelled glucose (using, for example, the Perkin Elmer 1450 Microbeta JET reader). These assays were conducted as follows.
as §1
Differentiation media-1 (DM1) was prepared by supplementing DMEM with 10% FBS, L-glutamine, pen/strep, IBMX (375 μM), insulin (120 nM), and dexamethasone (188 nM). Differentiation media-2 (DM2) was prepared by supplementing DMEM with 10% FBS, L-glutamine, pen/strep, and insulin (120 nM).
as §2, §3, §4, §5, §6
Two days prior to the experiment (at day 7-13 of differentiation), DM2 was removed and replaced with fresh Prees media. Candidate compounds were added at this time, allowing an incubation period of approximately 48 hours. On the day of the experiment, cells (now at day 9 to 15 of differentiation) were serum starved for three hours in DPBS, magnesium sulfate (0.8 mM), and Hepes (10 mM) at pH ˜7. After this incubation period, fresh DPBS containing insulin (10 nM) was added to the adipocytes. Fresh DPBS without any insulin were placed on cells that served as a negative control. […]

[4] = insulin-stimulated 14C-glucose uptake, 3T3-L1 adipocytes, about 48 h with compound, 10 nM insulin, test concentration per compound in column CRx uM
[5] = glycogen synthesis, human skeletal myoblasts, 2 h, dose (H)
[6] = glycogen synthesis, human skeletal myoblasts, 2 h, dose (L), concentration per compound uM(L)

Row | Compound | CRx F [1, 4] | Xlsyz F(H) [2, 5] | Xlsyz F(L) [2, 6] | further results
1 | CCN(CC)CC#CCOC(=O)C(O)(c1ccccc1)C1CCCCC1 (stereo not drawn) [Oxybutynin Chloride] | 1.0483 |  |  | 
2 | Cl.N [Ammonium Chloride] |  | 1.2105 | 0.8482 | CRx F [1]: 0.8881
3 | O=C1NC(=O)C(c2ccccc2)(c2ccccc2)N1 [PHENYTOIN] | 1.1755 |  |  | 
4 | CC(=O)Nc1nnc(S(N)(=O)=O)s1 [Acetazolamide] | 0.8994 |  |  | 
5 | O=C(O)c1cc(-c2ccc(F)cc2F)ccc1O [Diflunisal, 2′,4′-difluoro-4-hydroxy-[1,1′-biphenyl]-3-carboxylic acid] |  |  |  | average fold increase in insulin-stimulated glucose uptake compared to vehicle treated control ([3]; Diflunisal 9 μM, Bezafibrate 0 μM, average of four biological replicates): 1.12 fold; average fold increase in insulin-stimulated glucose uptake compared to vehicle treated control ([3]; Diflunisal 18 μM, Bezafibrate 0 μM, average of four biological replicates): 1.19 fold; average fold increase in insulin-stimulated glucose uptake compared to vehicle treated control ([3]; Diflunisal 36 μM, Bezafibrate 0 μM, average of four biological replicates): 1.52 fold
6 | c1ccc(CC2=NCCN2)cc1 [Tolazoline Hydrochloride] | 0.967 |  |  | 
7 | Cc1onc(-c2c(Cl)cccc2Cl)c1C(=O)N[C@@H]1C(=O)N2[C@@H]1SC(C)(C)[C@@H]2C(=O)O [Dicloxacillin Sodium] | 1.0042 |  |  | 
8 | CCN(CC)CCCC(C)Nc1c2ccc(Cl)cc2nc2ccc(OC)cc12 (stereo not drawn) [QUINACRINE] | 1.0058 |  |  | 
9 | CCCCC1C(=O)N(c2ccccc2)N(c2ccccc2)C1=O [Phenylbutazone] | 1.2098 |  |  | 
10 | CC(C)(C)NCC(O)c1cc(O)cc(O)c1 (stereo not drawn) [Terbutaline Sulfate] | 1.2758 |  |  | 
11 | [Ca+2].[Cl-].[Cl-] [Calcium Chloride] |  |  |  | Xlsyz F(H) [2]: 1.2121; Xlsyz F(L) [2]: 1.0714; CRx F [1]: 0.7358
12 | C[C@H](N[C@@H](CCc1ccccc1)C(=O)O)C(=O)N1CCC[C@H]1C(=O)O [Enalaprilat] | 0.992 | 0.8333 | 1.2739 | 
13 | Inulin | 1.0249 | 1.0089 | 1.3377 | 
14 | Cc1cc(NS(=O)(=O)c2ccc(N)cc2)nc(C)n1 [Sulfasomidine] | 1.1803 | 1.3077 | 1.0165 | 
15 | Invertase | 1.2175 | 0.8561 | 1.3974 | 
16 | CC(C)(Oc1ccc(CCNC(=O)c2ccc(Cl)cc2)cc1)C(=O)O [Bezafibrate] |  |  |  | average fold increase in insulin-stimulated glucose uptake compared to vehicle treated control ([3]; Bezafibrate 9 μM, Cinnamic acid 0 μM, average of three biological replicates): 0.94 fold; average fold increase in insulin-stimulated glucose uptake compared to vehicle treated control ([3]; Bezafibrate 9 μM, Diflunisal 0 μM, average of four biological replicates): 1.16 fold; average fold increase in insulin-stimulated glucose uptake compared to vehicle treated control ([3]; Bezafibrate 18 μM, Cinnamic acid 0 μM, average of three biological replicates): 1.21 fold; average fold increase in insulin-stimulated glucose uptake compared to vehicle treated control ([3]; Bezafibrate 18 μM, Diflunisal 0 μM, average of four biological replicates): 1.37 fold; average fold increase in insulin-stimulated glucose uptake compared to vehicle treated control ([3]; Bezafibrate 36 μM, Cinnamic acid 0 μM, average of three biological replicates): 1.15 fold; average fold increase in insulin-stimulated glucose uptake compared to vehicle treated control ([3]; Bezafibrate 36 μM, Diflunisal 0 μM, average of four biological replicates): 1.57 fold
17 | Metaproterenol Hemisulfate Salt | 1.7249 | 1.1261 | 1.4052 | 
18 | CCCCNCC(O)c1ccc(O)cc1 (stereo not drawn) [Bamethan] | 1.1895 | 1.3846 | 0.9106 | 
19 | O=C(O)Cc1ccccc1Nc1c(Cl)cccc1Cl [Diclofenac Sodium] | 1.3966 |  |  | 
20 | CCC(Cc1c(I)cc(I)c(O)c1I)C(=O)O (stereo not drawn) [Iohenoxic Acid] | 1.0641 | 1.2119 | 1.0504 | 
21 | [Cl][Cu][Cl] [Cupric Chloride] | 1.3661 | 1.25 | 1.0643 | 
22 | CC(=O)O[C@H]1C[C@H](O[C@H]2[C@@H](O)C[C@H](O[C@H]3[C@@H](O)C[C@H](O[C@H]4CC[C@@]5(C)[C@H](CC[C@@H]6[C@@H]5CC[C@]5(C)[C@@H](C7=CC(=O)OC7)CC[C@]65O)C4)O[C@@H]3C)O[C@@H]2C)O[C@H](C)[C@H]1O [Acetyldigitoxin] | 0.8077 | 1.2593 | 1.3016 | 
23 | CCS(=O)(=O)CCn1c([N+](=O)[O-])cnc1C [Tinidazole] | 1.0177 |  |  | 
24 | O=C(O)C=Cc1ccccc1 [Cinnamic acid, 3-phenyl-2-propenoic acid] |  |  |  | average fold increase in insulin-stimulated glucose uptake compared to vehicle treated control ([3]; Cinnamic acid 3 μM, Bezafibrate 0 μM, average of three biological replicates): 0.98 fold; average fold increase in insulin-stimulated glucose uptake compared to vehicle treated control ([3]; Cinnamic acid 6 μM, Bezafibrate 0 μM, average of three biological replicates): 1.03 fold; average fold increase in insulin-stimulated glucose uptake compared to vehicle treated control ([3]; Cinnamic acid 12 μM, Bezafibrate 0 μM, average of three biological replicates): 1.10 fold
25 | C[C@H](CS)C(=O)N1CCC[C@H]1C(=O)O [Captopril] | 0.662 |  |  | 
26 | C[C@H]1O[C@@H](O[C@H]2[C@@H](O)C[C@H](O[C@H]3[C@@H](O)C[C@H](O[C@H]4CC[C@@]5(C)[C@H](CC[C@@H]6[C@@H]5CC[C@]5(C)[C@@H](C7=CC(=O)OC7)CC[C@]65O)C4)O[C@@H]3C)O[C@@H]2C)C[C@H](O)[C@@H]1O [Digitoxin] | 0.8801 |  |  | 
27 | NC(=O)N1c2ccccc2C=Cc2ccccc21 [Carbamazepine] | 0.7464 |  |  | 
28 | CC(=O)Nc1ccc(O)cc1 [Acetaminophen] | 1.021 |  |  | 
29 | COc1cc([C@@H]2c3cc4c(cc3[C@@H](O[C@@H]3O[C@@H]5CO[C@@H](C)O[C@H]5[C@H](O)[C@H]3O)[C@H]3COC(=O)[C@H]23)OCO4)cc(OC)c1O [Etoposide] | 1.037 |  |  | 
30 | CCN(CC)C(=S)[S-].CCN(CC)C(=S)[S-].[Pb+2] [LEAD DIETHYLDITHIOCARBAMATE] | 1.524 | 1.2527 | 1.064 | 
